{"source": "patent US20090220435A1", "about": "“TIGHT JUNCTION MODULATING PEPTIDE COMPONENTS FOR ENHANCING MUCOSAL DELIVERY OF THERAPEUTIC AGENTS” (priority 2005, published 2009)", "note": "Non-standard residues stand in square brackets, D forms with d. Residues, ends and D or L forms follow the SMILES beside them.", "data": [{"test_system": "EpiAirway™ human-derived tracheal/bronchial epithelial cells", "assay": "Transepithelial electrical resistance (TER) across EpiAirway epithelial cell layer", "format": "cell-based", "conditions": "100 μM peptide", "units": {"TER reduction": "%"}, "values": [{"molecule": "H-KETWWETWWTEWSQPGRKKRRQRRRRPPQ-NH2 [PN183]", "TER reduction": 25}]}, {"test_system": "EpiAirway™ human-derived tracheal/bronchial epithelial cells", "assay": "Transepithelial electrical resistance (TER) across EpiAirway epithelial cell layer", "format": "cell-based", "conditions": "500 μM peptide", "units": {"TER reduction": "%"}, "values": [{"molecule": "H-KETWWETWWTEWSQPGRKKRRQRRRRPPQ-NH2 [PN183]", "TER reduction": 41}]}, {"test_system": "EpiAirway™ human-derived tracheal/bronchial epithelial cells", "assay": "Transepithelial electrical resistance (TER) across EpiAirway epithelial cell layer", "format": "cell-based", "conditions": "1000 μM peptide", "units": {"TER reduction": "%"}, "values": [{"molecule": "H-KETWWETWWTEWSQPGRKKRRQRRRRPPQ-NH2 [PN183]", "TER reduction": 55}]}, {"test_system": "EpiAirway™ human-derived tracheal/bronchial epithelial cells", "assay": "Transepithelial electrical resistance (TER) across EpiAirway epithelial cell layer", "format": "cell-based", "conditions": "EpiAirway epithelial cells", "values": [{"molecule": "H-RKKRRQRRRPPQCAAVALLPAVLLALLAP-NH2 [PN28]", "TER reduction (highest within the concentration range tested)": "functionally equivalent to PN27"}, {"molecule": "H-KETWWETWWTEWSQPGRKKRRQRRRRPPQ-NH2 [PN183]", "TER reduction (highest within the concentration range tested)": "55%"}]}, {"test_system": "EpiAirway™ human-derived tracheal/bronchial epithelial cells", "assay": "Transepithelial electrical resistance (TER) across EpiAirway epithelial cell layer", "format": "cell-based", "conditions": "ratio to PN159", "values": [{"molecule": "H-KLALKLALKALKAALK-NH2 [PN418]", "TER(x)/TER(159) +/− SEM": "1.05 +/− 0.05"}, {"molecule": "H-KALKLKAALALLAKLKLA-NH2 [PN424]", "TER(x)/TER(159) +/− SEM": "0.59 +/− 0.07"}, {"molecule": "H-KALAALLKKAAKLLAALK-NH2 [PN442]", "TER(x)/TER(159) +/− SEM": "0.93 +/− 0.03"}, {"molecule": "H-KLALKLALKALKAALKLALKLA-NH2 [PN420]", "TER(x)/TER(159) +/− SEM": "0.77 +/− 0.05"}, {"molecule": "H-KALAALLKKLAKLLAALK-NH2 [PN444]", "TER(x)/TER(159) +/− SEM": "0.82 +/− 0.05"}, {"molecule": "CC(C)C[C@H](NC(=O)[C@H](CC(C)C)NC(=O)[C@@H](CCCCN)NC(=O)[C@H](CC(C)C)NC(=O)[C@H](CC(C)C)NC(=O)[C@H](CCCCN)NC(=O)[C@@H](CCCCN)NC(=O)[C@@H](CC(C)C)NC(=O)[C@H](CC(C)C)NC(=O)[C@@H](CCCCN)NC(=O)[C@H](CCCCN)NC(=O)[C@H](CC(C)C)NC(=O)[C@@H](CC(C)C)NC(=O)[C@H](CCCCN)NC(=O)[C@@H](N)CC(C)C)C(N)=O", "note": "[PN407, NH2-LKlLKkLlkKLLkLL-amide] (H-LK[dL]LK[dK]L[dL][dK]KLL[dK]LL-NH2)", "TER(x)/TER(159) +/− SEM": "1.08 +/− 0.01"}, {"molecule": "H-KLALKLALKALKAALKLALKLALK-NH2 [PN421]", "TER(x)/TER(159) +/− SEM": "0.74 +/− 0.11"}, {"molecule": "H-KLAAALLKKAKKLAAALL-NH2 [PN441]", "TER(x)/TER(159) +/− SEM": "0.54 +/− 0.04"}, {"molecule": "CC(C)C[C@@H](NC(=O)[C@H](N)CCCCN)C(=O)N[C@H](C)C(=O)N[C@H](CC(C)C)C(=O)N[C@H](CCCCN)C(=O)N[C@H](CC(C)C)C(=O)N[C@H](C)C(=O)N[C@H](CC(C)C)C(=O)N[C@H](CCCCN)C(=O)N[C@H](C)C(=O)N[C@H](CC(C)C)C(=O)N[C@H](CCCCN)C(=O)N[C@H](C)C(=O)N[C@H](C)C(=O)N[C@H](CC(C)C)C(=O)N[C@H](CCCCN)C(=O)N[C@H](CC(C)C)C(=O)N[C@H](C)C(N)=O", "note": "[PN393, NH2-klalklalkalkaalkla-amide]", "TER(x)/TER(159) +/− SEM": "1.06 +/− 0.00"}, {"molecule": "CC(C)C[C@@H](NC(=O)[C@@H](C)N)C(=O)N[C@H](CCCCN)C(=O)N[C@H](CC(C)C)C(=O)N[C@H](C)C(=O)N[C@H](C)C(=O)N[C@H](CCCCN)C(=O)N[C@H](CC(C)C)C(=O)N[C@H](C)C(=O)N[C@H](CCCCN)C(=O)N[C@H](CC(C)C)C(=O)N[C@H](C)C(=O)N[C@H](CC(C)C)C(=O)N[C@H](CCCCN)C(=O)N[C@H](CC(C)C)C(=O)N[C@H](C)C(=O)N[C@H](CC(C)C)C(=O)N[C@H](CCCCN)C(N)=O", "note": "[PN408, NH2-alklaaklaklalklalk-amide]", "TER(x)/TER(159) +/− SEM": "1.05 +/− 0.01"}, {"molecule": "CC(C)C[C@H](NC(=O)[C@H](C)NC(=O)[C@H](CCCCN)NC(=O)[C@H](CC(C)C)NC(=O)[C@H](CC(N)=O)NC(=O)[C@H](CC(C)C)NC(=O)[C@H](CCCCN)NC(=O)[C@H](CC(C)C)NC(=O)[C@@H](CCCCN)NC(=O)[C@H](CC(C)C)NC(=O)[C@H](CCCCN)NC(=O)[C@H](CC(C)C)NC(=O)[C@H](C)NC(=O)[C@H](C)NC(=O)[C@H](CCCCN)NC(=O)[C@H](CC(C)C)NC(=O)[C@H](C)NC(=O)[C@H](CCCCN)NC(=O)[C@H](CC(C)C)NC(=O)[C@H](C)NC(=O)[C@H](CCCCN)NC(=O)[C@H](CC(C)C)NC(=O)[C@H](C)NC(=O)[C@H](CC(C)C)NC(=O)[C@@H](N)CCCCN)C(N)=O", "note": "[PN422] (H-KLALKALKALKAALKL[dK]LKLNLKAL-NH2)", "TER(x)/TER(159) +/− SEM": "0.47 +/− 0.07"}, {"molecule": "H-KLALKLALKALKAALKLALK-NH2 [PN419]", "TER(x)/TER(159) +/− SEM": "1.23 +/− 0.01"}]}, {"test_system": "EpiAirway™ human-derived tracheal/bronchial epithelial cells", "assay": "Transepithelial electrical resistance (TER) across EpiAirway epithelial cell layer", "format": "cell-based", "conditions": "relative to PN159 = 1.0", "values": [{"molecule": "H-KLAWKLALKALKAAWKLA-NH2 [PN0427]", "Relative TER Decrease": 1.0}, {"molecule": "H-KLALKLALKNLKAALKLA-NH2 [PN448]", "Relative TER Decrease": 0.4}, {"molecule": "CC(C)C[C@H](NC(=O)[C@H](CC(C)C)NC(=O)[C@@H](CCCCN)NC(=O)[C@H](CC(C)C)NC(=O)[C@H](CC(C)C)NC(=O)[C@H](CCCCN)NC(=O)[C@@H](CCCCN)NC(=O)[C@@H](CC(C)C)NC(=O)[C@H](CC(C)C)NC(=O)[C@@H](CCCCN)NC(=O)[C@H](CCCCN)NC(=O)[C@H](CC(C)C)NC(=O)[C@@H](CC(C)C)NC(=O)[C@H](CCCCN)NC(=O)[C@@H](N)CC(C)C)C(N)=O", "note": "[PN407, NH2-LKlLKkLlkKLLkLL-amide] (H-LK[dL]LK[dK]L[dL][dK]KLL[dK]LL-NH2)", "Relative TER Decrease": 1.1}, {"molecule": "H-LKLLKKLLKKLLKLL-NH2 [PN406]", "Relative TER Decrease": 0.9}, {"molecule": "H-KLAWKLALKALKAALKLA-NH2 [PN0425]", "Relative TER Decrease": 1.0}, {"molecule": "H-LKTLATALTKLAKTLTTL-NH2 [PN443]", "Relative TER Decrease": 0.3}, {"molecule": "H-RLAWRLALRALRAALRLA-NH2 [PN395]", "Relative TER Decrease": 0.8}]}]}
